Measurements: ChEMBL document CHEMBL4364263, “Synthesis and biological evaluation of 2,4,5-trisubstituted thiazoles as antituberculosis agents effective against drug-resistant tuberculosis” (Eur J Med Chem, 2019)
Converted amounts (≈) assume the structure as drawn.

Assays:
Format in all cases: functional
[1] = tested on: Mycobacterium tuberculosis; assay: Antitubercular activity against isoniazid, streptomycin, ethionamide, ethambutol, rifampicin and ofloxacin resistant Mycobacterium tuberculosis isolate 8 assessed as growth inhibition
[2] = tested on: Mycobacterium tuberculosis; assay: Antitubercular activity against isoniazid and rifampicin resistant Mycobacterium tuberculosis isolate 4 assessed as growth inhibition
[3] = tested on: Mycobacterium tuberculosis; assay: Antitubercular activity against isoniazid, streptomycin and rifampicin resistant Mycobacterium tuberculosis isolate 3 assessed as growth inhibition
[4] = tested on: Mycobacterium tuberculosis; assay: Antitubercular activity against isoniazid, streptomycin, ethionamide and ethambutol resistant Mycobacterium tuberculosis isolate 1 assessed as growth inhibition
[5] = tested on: Mycobacterium tuberculosis; assay: Antitubercular activity against isoniazid and ethionamide resistant Mycobacterium tuberculosis isolate 2 assessed as growth inhibition
[6] = tested on: Mycobacterium tuberculosis; assay: Antitubercular activity against isoniazid, streptomycin, ethionamide, ethambutol and rifampicin resistant Mycobacterium tuberculosis isolate 7 assessed as growth inhibition
[7] = tested on: Mycobacterium tuberculosis; assay: Antitubercular activity against isoniazid, streptomycin and ethionamide resistant Mycobacterium tuberculosis isolate 6 assessed as growth inhibition
[8] = tested on: Mycobacterium tuberculosis; assay: Antitubercular activity against isoniazid and ethionamide resistant Mycobacterium tuberculosis isolate 5 assessed as growth inhibition

SMILES: CCOC(=O)c1nc(C2CCCCC2)sc1-c1ccc(C#N)cc1
- MIC [1]: > 32 µg/mL
- MIC [2]: 4 µg/mL (≈ 11.7 µM)
- MIC [3]: 16 µg/mL (≈ 47 µM)
- MIC [4]: 8 µg/mL (≈ 23.5 µM)
- MIC [5]: 8 µg/mL (≈ 23.5 µM)
- MIC [6]: 16 µg/mL (≈ 47 µM)
- MIC [7]: 8 µg/mL (≈ 23.5 µM)
- MIC [8]: 8 µg/mL (≈ 23.5 µM)
